± gives the standard deviation of the averaged measurements.
Experiments:
[1] = compound: CNC(=O)c1ccc(N2C(=S)N(c3ccc(C#N)c(C(F)(F)F)c3)C(=O)C2(C)C)cc1F [MDV3100]; assay: surviving fraction relative to DMSO-only wells; higher = less growth inhibition; settings: exposure time: 5 days
Method in brief: (§1)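 Viability values are CellTiter-Glo luminescence readings, given as surviving fraction against the median of DMSO-only wells. The readings were taken after 10 minutes at room temperature, following five days of continuous exposure to inhibitors at 0.5, 1, 5, 10, 50, 100, 500 and 1000 nM that began 24 hours after log-phase tumour cell lines were seeded at 250–500 cells per well in 384-well plates. Every line was screened three times and kept only if replicate Pearson r >0.7 and median Z' >0.3.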

[2] = compound: Nc1nc2[nH]cnc2c(=S)[nH]1 [TIOGUANINE]; assay: as above; settings: exposure time: 5 days
Method in brief: as §1

Row | Test System | surviving fraction ([1]; 0.5 nM) | surviving fraction ([1]; 1 nM) | surviving fraction ([1]; 5 nM) | surviving fraction ([1]; 10 nM) | surviving fraction ([1]; 50 nM) | surviving fraction ([1]; 100 nM) | surviving fraction ([1]; 500 nM) | surviving fraction ([1]; 1000 nM) | surviving fraction ([2]; 0.5 nM) | surviving fraction ([2]; 1 nM) | surviving fraction ([2]; 5 nM) | surviving fraction ([2]; 10 nM) | surviving fraction ([2]; 50 nM) | surviving fraction ([2]; 100 nM) | surviving fraction ([2]; 500 nM) | surviving fraction ([2]; 1000 nM)
1 | BT549 BREAST | 0.957 ± 0.078 | 1.02 ± 0.089 | 1 ± 0.11 | 0.939 ± 0.0099 | 1.01 ± 0.036 | 0.996 ± 0.099 | 0.992 ± 0.076 | 0.98 ± 0.057 | 1.04 ± 0.17 | 1.05 ± 0.22 | 1.09 ± 0.12 | 1.12 ± 0.11 | 1.17 ± 0.14 | 0.917 ± 0.35 | 0.86 ± 0.42 | 0.996 ± 0.24
2 | C33A CERVIX | 0.753 ± 0.059 | 0.772 ± 0.05 | 0.976 ± 0.063 | 1.07 ± 0.15 | 0.983 ± 0.098 | 1.02 ± 0.05 | 0.834 ± 0.059 | 0.868 ± 0.044 | 0.807 ± 0.079 | 0.711 ± 0.052 | 0.9503 ± 0.0032 | 0.91 ± 0.048 | 1.03 ± 0.092 | 1.02 ± 0.023 | 0.707 ± 0.043 | 0.648 ± 0.061
3 | MDAMB157 BREAST | 0.935 ± 0.093 | 0.954 ± 0.071 | 0.933 ± 0.049 | 1.01 ± 0.079 | 0.927 ± 0.077 | 0.952 ± 0.071 | 0.853 ± 0.044 | 0.866 ± 0.097 | 0.867 ± 0.072 | 0.857 ± 0.052 | 0.958 ± 0.013 | 0.921 ± 0.071 | 0.986 ± 0.078 | 0.961 ± 0.085 | 0.88 ± 0.055 | 0.89 ± 0.039
4 | NCIH441 LUNG | 1.02 ± 0.05 | 1.04 ± 0.066 | 1.03 ± 0.052 | 1 ± 0.071 | 1.05 ± 0.077 | 0.924 ± 0.11 | 0.956 ± 0.16 | 0.863 ± 0.11 | 0.963 ± 0.053 | 1.03 ± 0.082 | 0.971 ± 0.032 | 0.955 ± 0.079 | 1.03 ± 0.024 | 1.02 ± 0.017 | 1.01 ± 0.091 | 0.976 ± 0.058
5 | HCC38 BREAST | 1.02 ± 0.14 | 1.27 ± 0.2 | 1.28 ± 0.038 | 1.1 ± 0.066 | 1.25 ± 0.027 | 1.35 ± 0.11 | 1.28 ± 0.038 | 1.13 ± 0.19 | 1.15 ± 0.31 | 1.3 ± 0.38 | 1.15 ± 0.29 | 1.28 ± 0.099 | 1.1 ± 0.24 | 1.08 ± 0.062 | 1.08 ± 0.32 | 0.95 ± 0.15
6 | BT20 BREAST | 1.1 ± 0.12 | 1.15 ± 0.066 | 1.11 ± 0.042 | 1.14 ± 0.029 | 0.907 ± 0.036 | 1.13 ± 0.068 | 0.969 ± 0.1 | 1.02 ± 0.03 | 1.02 ± 0.028 | 1.05 ± 0.12 | 1.07 ± 0.033 | 1.03 ± 0.048 | 1.12 ± 0.068 | 1.08 ± 0.081 | 0.958 ± 0.12 | 0.969 ± 0.18
7 | SCC90 HEADNECK | 0.893 ± 0.093 | 0.91 ± 0.076 | 1.04 ± 0.11 | 0.942 ± 0.1 | 1.17 ± 0.2 | 1.03 ± 0.13 | 0.86 ± 0.054 | 0.925 ± 0.099 | 0.874 ± 0.047 | 0.873 ± 0.057 | 1.16 ± 0.12 | 1.09 ± 0.12 | 1.03 ± 0.17 | 1.08 ± 0.15 | 0.86 ± 0.045 | 0.743 ± 0.099
8 | HCT15 LARGE INTESTINE | 0.906 ± 0.038 | 0.797 ± 0.11 | 0.862 ± 0.075 | 0.548 ± 0.11 | 0.938 ± 0.021 | 0.916 ± 0.027 | 0.968 ± 0.019 | 0.716 ± 0.1 | 0.968 ± 0.012 | 0.913 ± 0.05 | 0.979 ± 0.016 | 0.967 ± 0.051 | 1.02 ± 0.067 | 1.06 ± 0.023 | 1.04 ± 0.015 | 0.995 ± 0.012
9 | H23 LUNG | 0.978 ± 0.013 | 0.95 ± 0.0056 | 0.944 ± 0.03 | 0.942 ± 0.011 | 0.954 ± 0.026 | 0.9877 ± 0.0021 | 0.93 ± 0.034 | 0.891 ± 0.02 | 0.962 ± 0.017 | 0.966 ± 0.044 | 0.974 ± 0.024 | 0.993 ± 0.046 | 0.997 ± 0.058 | 1.04 ± 0.03 | 0.964 ± 0.02 | 0.966 ± 0.025
10 | SCC47 HEADNECK | 0.936 ± 0.15 | 0.826 ± 0.021 | 1 ± 0.04 | 1.05 ± 0.21 | 1.09 ± 0.17 | 1.03 ± 0.14 | 0.906 ± 0.04 | 0.829 ± 0.11 | 0.796 ± 0.02 | 0.834 ± 0.05 | 0.969 ± 0.043 | 0.961 ± 0.061 | 0.98 ± 0.035 | 0.966 ± 0.045 | 0.854 ± 0.082 | 0.803 ± 0.039
